# Source: a melting point compilation (Tetko et al.; mined from patent text by program, amines drawn as free bases though some values may be those of a salt)
row,Compound,melting point [°C]
1,COC(=O)C1=C(C)NC(C)=C(C(=O)OC)C1c1ccccc1COC(C)=O,149 to 151
2,CC(C)(C)C(O)(Cn1cncn1)C1CCC1 (stereo not given),94 to 99.5
3,NCCCCC(OP(=O)(O)CCCCc1ccccc1)C(=O)N1CCCC1C(=O)O (stereo not given),160 to 175
4,CCc1c(Sc2ccccc2)n(CC2CC=CC2)c(=O)[nH]c1=O,112 to 113
5,"COC(=O)C1=C(C)NC(C)=C(C(=O)OCOC(=O)C(C)(C)C)C1c1cccc(Cl)c1Cl (single isomer, unassigned; (+))",154 to 155
6,O=C(O)CN1CCCC(n2nc(-c3c(-c4ccccc4)nn4ccccc34)ccc2=O)C1=O (stereo not given),145 to 150
7,CC(=O)Nc1cc2c(cc1[N+](=O)[O-])OCCCO2,139 to 140
8,CC(=O)Nc1ccc(OCC2CO2)c(C(=O)Nc2cccc3[nH]ccc23)c1 (stereo not given),230
9,CCCCNc1cc(CNC(=O)OCC)cc(S(N)(=O)=O)c1Oc1ccccc1,105 to 107
10,CC(C)(C)P(=O)(CCC(=O)O)CCC(=O)O,174
11,Cc1nc2ccccc2c2ccc(F)cc12,92 to 93
12,COc1cc(OC)c2c(=O)cc(-c3ccc(N(C)C)cc3)oc2c1C1=CCN(C)CC1,148 to 150
13,CCOc1cc2c(cc1OCC)C1(CCC(C(=O)O)(C(=O)O)CC1)N(C(=O)OCc1ccccc1)CC2,175 to 176
14,Cn1c(CO)nc2ccc(Sc3ccccc3)nc21,119 to 120
15,COC(=O)C1=C(O)CCc2c(OC)cccc21,55 to 58
16,COc1ccc(C(CN2CCN(Cc3ccccc3)C2=O)NC(C)=O)cc1OC (stereo not given),156
17,CC1(C)CN(Cc2cc(F)ccc2F)c2cc(I)cnc2N1,168 to 169
18,OC(CCCN1CC=C(c2ccc(Cl)cc2)CC1)c1ccc(Cc2ccc(Cl)cc2)cc1 (stereo not given),104 to 105
19,CC(C)C(=O)Nc1ccn(C)c1,125 to 126
20,CCOC(=O)CS(=O)(=O)CCC=C1SC=CS1,103 to 104
21,C=C1N(CCC)C(=O)OC12CCNCC2,106 to 108
22,CCOC(=O)C1CC(O)CN1C(=O)c1ccc(OC)c(OC)c1 (stereo not given),128
23,COC(=O)C1(c2ccc(OCCN)cc2)CC1,119 to 122

row,Compound,melting point [°C]
1,COc1cccc2c1nc(Cl)n2C,118 to 119
2,CC(C)c1nc(CCOC(=O)N[C@H](C(=O)N[C@@H](Cc2ccccc2)[C@@H](O)C[C@H](Cc2ccccc2)NC(=O)OCc2cncs2)C(C)C)cs1,159 to 160
3,CN(C)CCNc1ccc(C=O)c2sc3ccc(O)cc3c(=O)c12,219 to 220
4,COc1cccc2c1C(c1ccccc1Cl)NC(=O)C2 (stereo not given),230 to 233
5,CNC(=S)OCc1nc(C(C)C)c(Sc2cc(Cl)cc(Cl)c2)n1C,119 to 121
6,O=C(Cc1c[nH]c2ccccc12)OCc1ccccc1,71 to 72
7,CC(C)(C)C(NC(=O)c1ccccc1)NC(=S)Nc1cccnc1 (stereo not given),193 to 194
8,CC(C)(NC(=O)C1=C(C(=O)Nc2cc(OC3CCCC3)c(Cl)cc2F)CCCC1)c1ccc(Br)cc1,214 to 216
9,COC(=S)NCc1cn(-c2ccc(N3CCC(=O)CC3)c(F)c2)nn1,145 to 147
10,CC(NC(=O)c1cc(Cl)cc(Br)c1N)C1CC1 (stereo not given),177
11,CN(C(=O)On1ccnn1)c1ccccc1,105 to 106
12,O=C(N1CCc2cc(S(=O)(=O)Cl)ccc2C1)C(F)(F)F,110 to 112
13,N#Cc1sc(C#N)c(Br)c1Br,138 to 139
14,O=C(O)C1=Cc2cc(Cl)c(Oc3ccc(Cl)cc3Br)cc2OC1C(F)(F)F (stereo not given),224 to 226
15,CCOC(=O)NNc1ccc(N(C)CC(C)O)nn1 (stereo not given),150 to 152
16,COc1cc(CC(=O)Nc2ccc(C3CN(C(=O)c4ccccc4)CC3C(=O)O)cc2)ccc1NC(=O)Nc1ccccc1C (stereo not given),248
17,Cc1oncc1C(=O)c1ccccc1[N+](=O)[O-],104 to 106
18,CN(C)c1ccc(/C=C/C(=O)CC(=O)/C=C/c2ccc3cc[nH]c3c2)cc1,112 to 119
19,Nc1ccccc1SCc1ncon1,57
20,O[C@H](COc1cccc2[nH]ccc12)CN1CCC(c2c[nH]c3cc(Cl)ccc23)CC1,90 to 95
21,CN1CC(CCN2CCN(c3ccc(Cl)c(Cl)c3)CC2)OC1=O (stereo not given),89 to 91
22,Clc1cc(-c2ccccc2)ccn1,70 to 72
23,CCCCCCCNC(=O)N(C)c1cccc(-c2ccc(CCC(=O)O)cc2OC)c1,100 to 101

row,Compound,melting point [°C]
1,COC(=O)CS(=O)(=O)Cc1cnc(OC)c([N+](=O)[O-])c1,137 to 140
2,Cc1cccc(C)c1NC(=O)c1ccc(C#N)cc1,185 to 187
3,O=C(O)c1cc(C#Cc2ccc(C(=O)O)c(C(=O)O)c2)cc(C(=O)O)n1,> 300
4,CCNc1nc2cc(COc3cccc(C=O)c3)ccc2o1,85 to 90
5,CCCC(=NOCC)C1=C(O)CC(c2c(C)c3c(c(C)c2Cl)CC(C)(C)C3)CC1=O (stereo not given),93 to 94
6,CC1CCN(c2nccc(Oc3ccc(NC(=O)c4cc(F)cc(N5CCOCC5)c4)c4ccccc34)n2)CC1,117 to 118
7,COC(=O)[C@H](Cc1ccc(N)cc1)NC(C)=O,141
8,OCc1ccc(N2CCN(Cc3ccc4ccccc4n3)CC2)cc1,126 to 127
9,Cc1ccccc1C(=O)Nc1ccc(C(=O)N2Cc3ccccc3Sc3ccccc32)cc1,145 to 148
10,C=C(COc1ccc(C(=O)CCC(=O)OC)cc1)COc1ccc(C(C)=O)c(O)c1CCC,89 to 90
11,CCCOc1ccccc1-c1nc2cc3ncn(CC(C)C4CCCCC4)c3cc2c(=O)[nH]1 (stereo not given),178 to 180
12,CN(C)C1(c2ccccc2)CCC(CNCCc2c[nH]c3ccccc23)CC1 (stereo not given),78 to 83
13,Nc1ccc(Sc2cc(I)nc(I)c2)cc1,175 to 176
14,Cn1cc(C(=O)NCc2ccc(Cl)cc2)c(=O)c2cc(CO)ccc21,168 to 170
15,COC(=O)c1cc(C)c(C)cc1C(=O)OC,54 to 55
16,O=C(NC1=CCN(CCc2ccccc2)CC1)c1ccccc1,115 to 117
17,Cc1ccc(Cl)c(Nc2ccccc2C(=O)N(O)Cc2ccccc2)c1Cl,133 to 135
18,O=C1CCn2c(-c3ccccc3)nc3cc(Cl)cc1c32,234 to 235
19,CCCCCCc1ccc(C=Nc2ccc(C#N)cc2)cc1,32.2 to 33
20,CC(C)(C)c1ccc2c(c1)CNC2=O,132 to 134
21,NC(=O)c1cc(-c2ccncc2)c[nH]c1=O,> 300
22,Nc1ccc(SCc2nc(Cl)ccc2Cl)cc1,110 to 111
23,CCCCNC(=O)C(=O)[C@H](CC(C)C)NC(=O)[C@@H](NS(=O)(=O)c1ccc(F)cc1)C(C)C,108 to 110

# Further lines, results first:
row,melting point [°C],Compound
1,165 to 166,O=S(=O)(NCC(O)(Cn1cncn1)c1ccc(Cl)cc1Cl)c1ccc(C(F)(F)F)cc1 (stereo not given)
2,237 to 238,O=C(Nc1ccc([N+](=O)[O-])cc1O)NC(c1ccccc1)c1ccccc1
3,270 to 273,CCCOc1ccc(-c2ccc3c(c2)C=C(C(=O)O)CCS3(=O)=O)cc1
4,75 to 76,CC(=O)n1c(SC(F)(F)F)cc(-c2ccc(F)cc2)c1-c1ccc(F)cc1
5,197 to 198,FC(F)(F)Oc1ccc(-c2coc3ccc(-c4nnc(S)o4)cc23)cc1
6,187,COc1cccc(Nc2nc(N)nc3c2-c2ccccc2C3)c1
7,115 to 116,COc1ccc(NS(=O)(=O)c2ccc([N+](=O)[O-])cc2[N+](=O)[O-])cc1
8,123 to 125,COc1cccc(-c2nc(-c3ccccc3C)n(C(=O)Nc3ccccc3)n2)c1
9,119 to 120,COC(=O)c1cccc(Oc2ncccc2C(=O)NCc2ccccc2)c1
10,239 to 241,O=c1[nH]c(-c2ccc(O)cc2)cc2ccccc12
11,225 to 226,Cc1cc(-c2nc3cccnn3c2-c2ccnc(NC(=O)c3ccc(C(F)(F)F)nc3)c2)ccc1F
12,106 to 107,COC(=O)CNc1ccc(OCc2ccccc2)cc1
13,177 to 179,COC(=O)c1cc(N)c(F)c(-c2ccc(Cl)cc2)n1
14,264 to 266,COc1ccc(-c2nc(Sc3ccc(C(F)(F)F)cc3[N+](=O)[O-])[nH]c2-c2ccc(OC)cc2)cc1
15,100 to 101,CCc1nc2c(N)nc3cc(OCc4ccc(S(=O)(=O)NCCc5cc6ccccc6[nH]5)cc4)ccc3c2s1
16,132 to 133,CON(c1ccc([N+](=O)[O-])cc1Cl)S(=O)(=O)c1ccc(Cl)c(Cl)c1

row,melting point [°C],Compound
1,49 to 50,CCc1cc2cc(OC)ccc2[nH]1
2,142 to 143,Cc1cc(-c2cc(F)c(F)cc2-c2ccc(S(N)(=O)=O)cc2)ccc1Cl
3,256,O=C(CSc1ccccc1)c1ccc2[nH]c3nc(Cl)ccc3c2c1
4,143 to 144,COC(=O)C1=C(C)NC(C)=C(C(=O)OCC=Cc2ccccc2)C1c1cccc([N+](=O)[O-])c1 (stereo not given)
5,118,CNc1nc(C(C)c2ccc(-c3ccccc3)c(F)c2)c(C(=O)NO)s1 (stereo not given)
6,146 to 148,COc1ccc(-n2nc(Sc3ccc(Cl)cc3)c(C)c(C#N)c2=O)cc1
7,> 320,CCOc1ccc(-c2c(O)c3ccc(Cl)cc3[nH]c2=O)cc1
8,145 to 146,CCOC(=O)CCc1cn(Cc2ccc(OCc3nc(-c4ccco4)oc3C)cc2)nc1O
9,99.5 to 100,CCCCn1c(-c2ccc(OC)cc2)nc2c3ccccc3ccc21
10,187 to 189,Oc1ccc(C(c2ccc(O)cc2)(c2ccc(I)cc2)C(F)(F)F)cc1
11,136,C#C/C(=C\c1cccnc1)c1c[nH]c2ccc(OC)cc12
12,116 to 118,O=[N+]([O-])c1ccc(Nc2cccc(-n3cccc3)c2)c([N+](=O)[O-])c1
13,142 to 144,COc1cc2c(cc1F)C1(CO2)C(=O)N(Cc2ccccn2)c2ccccc21 (stereo not given)
14,262,CC(=O)OC(C)c1nc2c(C(F)(F)F)cccc2c(O)c1C(=O)Nc1nccs1 (stereo not given)
15,84 to 86,Cc1ccc(OC2CN(S(=O)(=O)c3ccc(C)cc3)CCc3ccccc32)cc1 (stereo not given)
